Target: T1, human LCE (Homo sapiens, UniProt Q9H5J4)
T1 sequence (Q9H5J4 1-265): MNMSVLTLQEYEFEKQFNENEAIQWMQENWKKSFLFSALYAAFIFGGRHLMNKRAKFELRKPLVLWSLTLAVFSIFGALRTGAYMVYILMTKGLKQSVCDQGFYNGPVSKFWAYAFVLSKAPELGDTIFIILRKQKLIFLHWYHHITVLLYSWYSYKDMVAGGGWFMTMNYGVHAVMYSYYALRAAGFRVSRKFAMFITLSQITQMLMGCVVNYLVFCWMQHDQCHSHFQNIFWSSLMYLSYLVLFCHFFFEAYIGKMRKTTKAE
Test: LCE enzyme activity-inhibitory test
Assay type: biochemical
Details: [14C]-malonyl CoA / palmitoyl CoA substrate, 37° C., 90 minutes
Outline: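 Human LCE (100 μg/mL in enzyme solution) was incubated 90 min at 37 °C in 100 mM potassium phosphate pH 6.5 with palmitoyl CoA, malonyl CoA, [14C]-malonyl CoA, rotenone and fatty acid-free BSA. Acid-stopped, hydrolyzed products were captured on GF/C filters and counted by scintillation. Inhibition was calculated against DMSO control.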

SMILES	IC50 [nM]
CC(C)Oc1ccc(NC(=O)c2cccc(S(=O)(=O)c3ncccn3)c2)cc1 [Example 139, N-(4-isopropoxyphenyl)-3-(pyrimidin-2-ylsulfonyl)benzamide]	130
O=C(Nc1cc(C2CC2)n[nH]1)c1cccc(S(=O)(=O)c2ncccn2)c1 [Example 140, N-(3-cyclopropyl-1H-pyrazol-5-yl)-3-(pyrimidin-2-ylsulfonyl)benzamide]	380
CC(C)Oc1ccc(NC(=O)c2cccc(S(=O)(=O)c3cnccn3)c2)cc1 [Example 141, N-(4-isopropoxyphenyl)-3-(pyrazin-2-ylsulfonyl)benzamide]	1500
CC(C)Oc1ccc(NC(=O)c2cccc(S(=O)(=O)c3nc[nH]n3)c2)cc1 [Example 142, N-(4-isopropoxyphenyl)-3-(1H-1,2,4-triazol-3-ylsulfonyl)benzamide]	5100
CC(C)Oc1ccc(NC(=O)c2cccc(S(=O)(=O)c3cn[nH]c3)c2)cc1 [Example 143, N-(4-isopropoxyphenyl)-3-(1H-pyrazol-4-ylsulfonyl)benzamide]	4500
CC(C)Oc1ccc(NC(=O)c2cccc(S(=O)(=O)C3CCCCC3)c2)cc1 [Example 144, 3-(Cyclohexylsulfonyl)-N-(4-isopropoxyphenyl)benzamide]	74
COc1ccccc1NC(=O)c1cccc(S(=O)(=O)C2CCCCC2)c1 [Example 145, 3-(Cyclohexylsulfonyl)-N-(2-methoxyphenyl)benzamide]	210
COc1ccc(NC(=O)c2cccc(S(=O)(=O)C3CCCCC3)c2)cc1 [Example 146, 3-(Cyclohexylsulfonyl)-N-(4-methoxyphenyl)benzamide]	1100
COc1cccnc1NC(=O)c1cccc(S(=O)(=O)C2CCCCC2)c1 [Example 147, 3-(Cyclohexylsulfonyl)-N-(3-methoxypyridin-2-yl)benzamide]	190
COc1ccc(NC(=O)c2cc(S(=O)(=O)N3CCCCC3)ccc2OC)cc1 [Example 149, 2-Methoxy-N-(4-methoxyphenyl)-5-(piperidin-1-ylsulfonyl)benzamide]	1000
COc1ccc(S(=O)(=O)N2CCCCC2)cc1C(=O)Nc1ccc(C(C)C)cc1 [Example 150, N-(4-isopropylphenyl)-2-methoxy-5-(piperidin-1-ylsulfonyl)benzamide]	31
CC(C)Oc1ccc(NC(=O)c2cc(S(=O)(=O)N3CCCCC3)ccc2O)cc1 [Example 151, 2-Hydroxy-N-(4-isopropoxyphenyl)-5-(piperidin-1-ylsulfonyl)benzamide]	3600
CCOc1ccc(S(=O)(=O)N2CCCCC2)cc1C(=O)Nc1ccc(OC(C)C)cc1 [Example 152, 2-Ethoxy-N-(4-isopropoxyphenyl)-5-(piperidin-1-ylsulfonyl)benzamide]	180
CC(C)Oc1ccc(NC(=O)c2cc(S(=O)(=O)N3CCCCC3)ccc2OCCC#N)cc1 [Example 153, 2-(Cyanoethoxy)-N-(4-isopropoxyphenyl)-5-(piperidin-1-ylsulfonyl)benzamide]	420
CC(C)Oc1ccc(NC(=O)c2cc(S(=O)(=O)N3CCCCC3)ccc2OCC(=O)O)cc1 [Example 154, [2-{[(4-Isopropoxyphenyl)amino]carbonyl}-4-(piperidin-1-ylsulfonyl)phenoxy]acetic acid]	300
COc1ccc(C(=O)Nc2ccc(C(C)C)cc2)cc1S(=O)(=O)N1CCCCC1 [Example 155, N-(4-isopropylphenyl)-4-methoxy-3-(piperidin-1-ylsulfonyl)benzamide]	5700
COc1ccc(S(=O)(=O)N2CCCCC2)cc1C(=O)Nc1ncccc1OC [Example 156, 2-Methoxy-N-(3-methoxypyridin-2-yl)-5-(piperidin-1-ylsulfonyl)benzamide]	150
CC(C)c1ccc(NC(=O)c2cccc(S(=O)(=O)c3ccccc3)n2)cc1 [Example 157, N-(4-isopropylphenyl)-6-(phenylsulfonyl)pyridine-2-carboxamide]	1400
CC(C)c1ccc(NC(=O)c2cncc(S(=O)(=O)c3ccccc3)c2)cc1 [Example 158, N-(4-isopropylphenyl)-5-(phenylsulfonyl)nicotinamide]	3400
CC(C)Oc1ccc(C(=O)NCc2cccc(S(=O)(=O)N3CCCCC3)c2)cc1 [Example 159, 4-Isopropoxy-N-[3-(piperidin-1-ylsulfonyl)benzyl]benzamide]	230
CC(C)Oc1ccc(NC(=O)Cc2cccc(S(=O)(=O)N3CCCCC3)c2)cc1 [Example 160, N-(4-isopropoxyphenyl)-2-[3-(piperidin-1-ylsulfonyl)phenyl]acetamide]	130
CC(C)Oc1ccc(C(=O)NCCc2cccc(S(=O)(=O)N3CCCCC3)c2)cc1 [Example 161, 4-Isopropoxy-N-{2-[3-(piperidin-1-ylsulfonyl)phenyl]ethyl}benzamide]	4800
CC(C)Oc1ccc(NC(=O)CCc2cccc(S(=O)(=O)N3CCCCC3)c2)cc1 [Example 162, N-(4-isopropoxyphenyl)-3-[3-(piperidin-1-ylsulfonyl)phenyl]propanamide]	1500

— US8420823B2, “Long-chain fatty acyl elongase inhibitor comprising arylsulfonyl derivative as active ingredient” (MSD K.K., priority 2008, dated 2013)
